Source: US9708251B2, “Unsaturated fatty alcohol alkoxylates from natural oil metathesis” (Stepan Company, priority 2012, dated 2017)

How the values were obtained:
[1] = Emulsion stability testing of nonionic emulsifiers, aromatic solvent series; format: physicochemical; design: key to 24 h separation, appearance / 1 h separation, appearance / 1 h separation, amount: C = creamy; CO = creamy oil; O = oil; GC = gritty cream; NS = no separation; OC = oily cream; key to Spon. (spontaneity): G = good; F = fair; P = poor
[2] = Emulsion stability testing of nonionic emulsifiers, Hallcomid solvent series; format: physicochemical; design: key to 24 h separation, appearance / 1 h separation, appearance / 1 h separation, amount: C = creamy; CO = creamy oil; O = oil; GC = gritty cream; NS = no separation; OC = oily cream; key to Spon. (spontaneity): G = good; F = fair; P = poor
[3] = Surfactant phase behavior study (cross-polarized microscopy); format: physicochemical; settings: room temperature, in deionized water
Method in brief: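 Saturated analogs serve as comparators. Water dilutions of the product, stepped at 2-4% near transitions, equilibrated between slide and cover glass and assigned phase by cross-polarized microscopy texture at 100-400×, 20-22° C. Boundaries lie within ±5% actives; some samples checked by viscosity at 25° C.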

[4] = Emulsion stability testing of nonionic emulsifiers, Hallcomid solvent series; format: physicochemical; design: key: C = creamy; CO = creamy oil; O = oil; GC = gritty cream; NS = no separation; OC = oily cream; Tr. = trace; settings: Bifenthrin 240 g/L in Hallcomid M-8-10, 34 ppm water
Description: Nonionic samples contain a low amount of water (<1%) and are prepared as emulsifiable concentrates with three pesticides using two different solvent systems. In the aromatic solvent series, the nonionic sample replaces Toximul® 8240 (castor oil ethoxylate, 36 POE, Stepan), and in the Hallcomid™ (N,N-dimethylcaprylamide/N,N-dimethylcapramide, Stepan) solvent series, the nonionic sample replaces Ninex® MT-630F.
Hallcomid Solvent Series.
Sample preparation: The surfactants are combined and stirred until homogeneous, with the nonionic sample melted if needed prior to combination. Controls 1-3 are made by using Ninex MT-630F in the amounts indicated instead of the nonionic sample.
Emulsion Stability Testing
A Mohr pipette is used to feed pesticide/surfactant concentrates to each cylinder.

[5] = Fabric cleaning: compaction (surfactant blends); format: physicochemical
Description: The sample is formulated into surfactant blends having high actives content. Two experimental derivatives, A12-13 and A12-21, are evaluated.
In a first experiment, a three-component surfactant blend is prepared. This blend comprises the experimental sample (30 wt. %), a linear alkylbenzene sulfonate (15 wt. %), and an alkyl ether sulfate (15 wt. %). The appearance and viscosity of the blend are compared with those of similar three-component blends in which a standard alcohol ethoxylate replaces the experimental sample.
In a second experiment, a two-component surfactant blend is prepared in which the experimental sample and a linear alkylbenzene sulfonate are combined at a 1:1 actives ratio, beginning with a high actives blend having a cloudy appearance. Water is gradually added and mixed with the surfactant blend at room temperature. […]

[6] = Performance as a latex paint additive (formulation, KU, rating); settings: initial KU of 90; additive 1% active based on latex solids
Description: Titanium dioxide slurry (Dupont Ti-Pure® R746) is charged to a container, followed by deionized water and propylene glycol, and the contents are mixed (500 rpm). […] The pH is adjusted to 9.0 using ammonium hydroxide solution. The batch is mixed for 30 min. and then allowed to stand for at least 2 h. […] Viscosity is adjusted to an initial KU of 90 with more thickener.

[7] = Emulsion stability testing of nonionic emulsifiers, Hallcomid solvent series; format: physicochemical; design: key: C = creamy; CO = creamy oil; O = oil; GC = gritty cream; NS = no separation; OC = oily cream; settings: Bifenthrin 240 g/L in Hallcomid M-8-10, 34 ppm water
[8] = 2,4-D ester 480 g/L in Exxsol D-110, 34 ppm water
[9] = 2,4-D ester 480 g/L in Exxsol D-110, 1000 ppm water
[10] = Bifenthrin 240 g/L in Aromatic 100, 34 ppm water
[11] = Bifenthrin 240 g/L in Aromatic 100, 1000 ppm water
[12] = Tebuconazole 360 g/L in N-methyl-2-pyrrolidone, 34 ppm water
[13] = Tebuconazole 360 g/L in N-methyl-2-pyrrolidone, 1000 ppm water
[14] = 2,4-D diester 480 g/L in Hallcomid M-8-10, 34 ppm water
[15] = 2,4-D diester 480 g/L in Hallcomid M-8-10, 1000 ppm water
[16] = Bifenthrin 240 g/L in Hallcomid M-8-10, 34 ppm water
[17] = Bifenthrin 240 g/L in Hallcomid M-8-10, 1000 ppm water
[18] = Tebuconazole 360 g/L in Hallcomid M-8-10, 34 ppm water
[19] = Tebuconazole 360 g/L in Hallcomid M-8-10, 1000 ppm water
[20] = three-component blend: sample 30 wt. %, linear alkylbenzene sulfonate 15 wt. %, alkyl ether sulfate 15 wt. %

CCC=CCCCCCCCCOCCOCCOCCOCCOCCO (mixture of isomers) [A12-10]
1 h separation, amount [1, 8]: 0.7 mL
1 h separation, appearance [1, 8]: C
24 h separation, amount [1, 8]: 3.9 mL
24 h separation, appearance [1, 8]: C
Spon. (spontaneity) [1, 8]: F
1 h separation, amount [1, 9]: 4.6 mL
1 h separation, appearance [1, 9]: CO
24 h separation, amount [1, 9]: 0.75 O, 4.3 CO
Spon. (spontaneity) [1, 9]: P
1 h separation, amount [1, 10]: 2.3 mL
1 h separation, appearance [1, 10]: C
24 h separation, amount [1, 10]: 9 mL
24 h separation, appearance [1, 10]: C
Spon. (spontaneity) [1, 10]: F
Spon. (spontaneity) [1, 11]: F
1 h separation, amount [1, 12]: 2.6 mL
1 h separation, appearance [1, 12]: C
24 h separation, amount [1, 12]: 4 mL
24 h separation, appearance [1, 12]: GC
Spon. (spontaneity) [1, 12]: P
1 h separation, amount [1, 13]: 2.1 mL
1 h separation, appearance [1, 13]: C
24 h separation, amount [1, 13]: 3.2 mL
24 h separation, appearance [1, 13]: GC
Spon. (spontaneity) [1, 13]: P
1 h separation, amount [2, 14]: 5.3 mL
1 h separation, appearance [2, 14]: C
24 h separation, amount [2, 14]: 9.2 mL
24 h separation, appearance [2, 14]: C
Spon. (spontaneity) [2, 14]: P
1 h separation, amount [2, 15]: 6.8 mL
1 h separation, appearance [2, 15]: C
24 h separation, amount [2, 15]: 8.7 mL
24 h separation, appearance [2, 15]: C
Spon. (spontaneity) [2, 15]: F
1 h separation, amount [2, 16]: NS
24 h separation, appearance [2, 16]: C
Spon. (spontaneity) [2, 16]: G
1 h separation, amount [2, 17]: 6.1 mL
1 h separation, appearance [2, 17]: O
24 h separation, amount [2, 17]: 3 O, 2 CO
Spon. (spontaneity) [2, 17]: F
1 h separation, amount [2, 18]: 2.1 mL
1 h separation, appearance [2, 18]: C
24 h separation, amount [2, 18]: 5.1 mL
24 h separation, appearance [2, 18]: C
Spon. (spontaneity) [2, 18]: F
1 h separation, amount [2, 19]: 2 mL
1 h separation, appearance [2, 19]: C
24 h separation, amount [2, 19]: 4.2 mL
24 h separation, appearance [2, 19]: C
Spon. (spontaneity) [2, 19]: F
Lamellar phase region [3]: 50-80 % Actives Level
Lamellar/Isotropic phase region [3]: 35-50 % Actives Level
24 h separation, amount [4]: Tr.

CCC=CCCCCCCCCOCCOCCOCCOCCOCCOCCOCCO (mixture of isomers) [A12-13]
1 h separation, amount [1, 8]: 3.5 mL
1 h separation, appearance [1, 8]: C
24 h separation, amount [1, 8]: 5 mL
24 h separation, appearance [1, 8]: C
Spon. (spontaneity) [1, 8]: F
1 h separation, amount [1, 9]: 5.2 mL
1 h separation, appearance [1, 9]: CO
24 h separation, amount [1, 9]: 5 mL
24 h separation, appearance [1, 9]: CO
Spon. (spontaneity) [1, 9]: F
1 h separation, amount [1, 10]: 1 mL
1 h separation, appearance [1, 10]: C
24 h separation, amount [1, 10]: 4.9 mL
24 h separation, appearance [1, 10]: C
Spon. (spontaneity) [1, 10]: F
1 h separation, amount [1, 11]: Tr.
1 h separation, appearance [1, 11]: C
24 h separation, amount [1, 11]: 0.5 CO, 1 C
Spon. (spontaneity) [1, 11]: G
1 h separation, amount [1, 12]: 1.8 mL
1 h separation, appearance [1, 12]: C
24 h separation, amount [1, 12]: 3 GC, 4 CO
Spon. (spontaneity) [1, 12]: P
1 h separation, amount [1, 13]: 2.4 mL
1 h separation, appearance [1, 13]: C
24 h separation, amount [1, 13]: 3.5 mL
24 h separation, appearance [1, 13]: GC
Spon. (spontaneity) [1, 13]: P
1 h separation, amount [2, 14]: 4.4 mL
1 h separation, appearance [2, 14]: C
24 h separation, amount [2, 14]: 9.6 mL
24 h separation, appearance [2, 14]: C
Spon. (spontaneity) [2, 14]: P
1 h separation, amount [2, 15]: 5.2 mL
1 h separation, appearance [2, 15]: C
24 h separation, amount [2, 15]: 9 mL
24 h separation, appearance [2, 15]: C
Spon. (spontaneity) [2, 15]: F
1 h separation, amount [2, 16]: NS
24 h separation, appearance [2, 16]: C
Spon. (spontaneity) [2, 16]: G
1 h separation, amount [2, 17]: 5.1 mL
1 h separation, appearance [2, 17]: CO
24 h separation, amount [2, 17]: 3 O, 2 CO
Spon. (spontaneity) [2, 17]: F
1 h separation, amount [2, 18]: 1.3 mL
1 h separation, appearance [2, 18]: C
24 h separation, amount [2, 18]: 4.1 mL
24 h separation, appearance [2, 18]: C
Spon. (spontaneity) [2, 18]: F
1 h separation, amount [2, 19]: 1.8 mL
1 h separation, appearance [2, 19]: C
24 h separation, amount [2, 19]: 4.3 mL
24 h separation, appearance [2, 19]: C
Spon. (spontaneity) [2, 19]: G
Hexagonal phase region [3]: 35-57 % Actives Level
Appearance, 25° C. [5, 20]: cloudy, flowable gel
Viscosity [5, 20]: 5400 cPs
% Actives at which blend is clear and homogeneous at 25° C. ([5]; two-component blend with linear alkylbenzene sulfonate, 1:1 actives ratio): 41 % Actives
24 h separation, amount [4]: Tr.

CCC=CCCCCCCCCOCCOCCOCCOCCOCCOCCOCCOCCOCCOCCOCCOCCOCCOCCOCCO (mixture of isomers) [A12-16]
1 h separation, amount [1, 8]: 3.9 mL
1 h separation, appearance [1, 8]: C
24 h separation, amount [1, 8]: 5.3 mL
24 h separation, appearance [1, 8]: C
Spon. (spontaneity) [1, 8]: P
1 h separation, amount [1, 9]: 2.9 mL
1 h separation, appearance [1, 9]: C
24 h separation, amount [1, 9]: 4 mL
24 h separation, appearance [1, 9]: C
Spon. (spontaneity) [1, 9]: P
1 h separation, amount [1, 10]: 5.9 mL
1 h separation, appearance [1, 10]: C
24 h separation, amount [1, 10]: 6 mL
24 h separation, appearance [1, 10]: C
Spon. (spontaneity) [1, 10]: F
1 h separation, amount [1, 11]: 5.5 mL
1 h separation, appearance [1, 11]: C
24 h separation, amount [1, 11]: 5 mL
24 h separation, appearance [1, 11]: C
Spon. (spontaneity) [1, 11]: P
1 h separation, amount [1, 12]: 1.8 mL
1 h separation, appearance [1, 12]: CO
24 h separation, amount [1, 12]: 3 mL
24 h separation, appearance [1, 12]: GC
Spon. (spontaneity) [1, 12]: F
1 h separation, amount [1, 13]: 1.9 mL
1 h separation, appearance [1, 13]: CO
24 h separation, amount [1, 13]: 3 mL
24 h separation, appearance [1, 13]: GC
Spon. (spontaneity) [1, 13]: F
1 h separation, amount [2, 14]: 4.5 mL
1 h separation, appearance [2, 14]: C
24 h separation, amount [2, 14]: 8.5 mL
24 h separation, appearance [2, 14]: C
Spon. (spontaneity) [2, 14]: P
1 h separation, amount [2, 15]: 4 mL
1 h separation, appearance [2, 15]: C
24 h separation, amount [2, 15]: 7 mL
24 h separation, appearance [2, 15]: C
Spon. (spontaneity) [2, 15]: P
1 h separation, amount [2, 16]: NS
Spon. (spontaneity) [2, 16]: G
1 h separation, amount [2, 17]: 6.2 mL
1 h separation, appearance [2, 17]: CO
24 h separation, amount [2, 17]: 2 O, 3.6 CO
Spon. (spontaneity) [2, 17]: F
1 h separation, amount [2, 18]: 1.5 mL
1 h separation, appearance [2, 18]: C
24 h separation, amount [2, 18]: 3 mL
24 h separation, appearance [2, 18]: C
Spon. (spontaneity) [2, 18]: F
1 h separation, amount [2, 19]: 1.5 mL
1 h separation, appearance [2, 19]: C
24 h separation, amount [2, 19]: 3 mL
24 h separation, appearance [2, 19]: C
Spon. (spontaneity) [2, 19]: F
Cubic phase region [3]: 30-57 % Actives Level
Hexagonal phase region [3]: 60-70 % Actives Level
Paste phase region [3]: 93-100 % Actives Level
final KU of paint after 24 h [6]: 93-100 KU
24 h separation, amount [7]: NS
